From the Kinase Knowledgebase extract (Sharma et al. 2016) come the findings set out here.

Assay [1] deals with CDK2 (human) (UniProt P24941). In words: Enzyme Assay.
For assay [2], the target named is CDK2 (human) (UniProt P24941). In words: Cell-Based Assay.
The target of assay [3] is CDK2 (human) (UniProt P24941). In words: Cell-Based Assay. As to conditions: rko.

Usually IC50 stands for the concentration that inhibits the measured activity by half. Take `CS(=O)(=O)Cc1ccc(N/C=C2\C(=O)Nc3ccc4ncsc4c32)cc1`: the IC50 against CDK2 (human) [1] turned out to be 30.5 nM; at CDK2 (human) [2] (hdf-3), 3050 nM; on CDK2 (human) [2] (mes/sa), 3050 nM; at CDK2 (human) [2] (rko), 3050 nM.
As to `O=C1Nc2ccc3ncsc3c2/C1=C/Nc1ccc2nn[nH]c2c1`, the IC50 on CDK2 (human) [1] turned out to be 30.5 nM; against CDK2 (human) [2] (mda-mb-468), 3050 nM.
`CCC(C)Cc1cccc2c1C(=NNc1ccc(S(N)(=O)=O)cc1)C(=O)N2` (configuration not stated): the IC50 was determined as 5.5 nM against CDK2 (human) [1], 3050 nM on CDK2 (human) [2] (hdf-3) and 3050 nM against CDK2 (human) [2] (rko).
As for `CN(C)S(=O)(=O)c1ccc(N/C=C2\C(=O)Nc3ccc(-c4cnco4)cc32)cc1`, the 50% inhibitory concentration (IC50) at CDK2 (human) [1] was 5.5 nM; at CDK2 (human) [2] (rko) it was 3050 nM; on CDK2 (human) [3] it was 3050 nM.
With `CN(C)S(=O)(=O)c1ccc(N/C=C2/C(=O)Nc3ccc(-c4cnco4)cc32)cc1`, the IC50 at CDK2 (human) [2] (mda-mb-468) was greater than 5000 nM.
For `CNS(=O)(=O)Cc1ccc(NN=C2C(=O)Nc3ccc4ncccc4c32)cc1`, the IC50 against CDK2 (human) [1] was 5.5 nM; on CDK2 (human) [2] (hdf-3), 3050 nM; against CDK2 (human) [2] (rko), 3050 nM.
`CNS(=O)(=O)Cc1ccc(NN=C2C(=O)Nc3cc(C)c(O)c(C)c32)cc1`: the IC50 at CDK2 (human) [1] was 75.5 nM; against CDK2 (human) [2] (hdf), 800 nM; against CDK2 (human) [2] (hdf-3) it was 3050 nM; on CDK2 (human) [2] (rko) it was 300 nM; against CDK2 (human) [3], 300 nM.
With `NS(=O)(=O)c1ccc(NN=C2C(=O)Nc3ccc(-c4cnco4)cc32)cc1`, the IC50 turned out to be 5.5 nM against CDK2 (human) [1]; 3050 nM at CDK2 (human) [2] (hdf); 800 nM at CDK2 (human) [2] (hdf-3); 300 nM against CDK2 (human) [2] (mes/sa); 800 nM against CDK2 (human) [2] (rko); 800 nM at CDK2 (human) [3].
